The values below come from article PMC5059489, “Mechanistic evaluation and transcriptional signature of a glutathione S-transferase omega 1 inhibitor” (Nature Communications, 2016).

Where “and” joins values, the source holds several entries; their conditions need not be identical. Equal entries are not always repeated. Some results are limits rather than exact numbers.

The target in assay [1] is T1, GSTO1 (Homo sapiens, UniProt P78417).
T1 sequence (P78417 1-241): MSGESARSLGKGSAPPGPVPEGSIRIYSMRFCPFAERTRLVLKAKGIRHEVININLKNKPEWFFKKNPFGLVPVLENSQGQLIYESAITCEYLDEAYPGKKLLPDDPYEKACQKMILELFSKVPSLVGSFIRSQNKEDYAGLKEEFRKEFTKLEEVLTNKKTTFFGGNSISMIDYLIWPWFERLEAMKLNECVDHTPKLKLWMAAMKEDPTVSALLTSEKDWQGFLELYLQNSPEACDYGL
Briefly: In-gel fluorescence competitive CMFDA binding assay, recombinant GSTO1. The conditions noted are these: inhibition of CMFDA binding.
Source text: (§2) Primary screening of GSTO inhibitors was based on competitive inhibition of CMFDA binding to endogenous GSTO. Briefly, HCT116^p53+/+ cells (4 × 10^4 per well) were coated in a 12-well plate. […] Cells were then washed with PBS and lysed using Cell Lytic M buffer (Sigma). […] Gels were immediately scanned on a Typhoon variable mode imager (Amersham Bioscience). Quantification of fluorescent band intensity was done using Image Quant 5.2 software.

Assay [2] has as its target T2, endogenous GSTO1 (Homo sapiens, UniProt P78417).
T2 sequence (P78417 1-241): T1 sequence (P78417 1-241)
The assay can be described thus: In-gel fluorescence competitive CMFDA binding assay, endogenous GSTO1 in HCT116. The conditions noted are these: for GSTO binding assay (% Inhibition at 10 µM) Endogenous: inhibition of CMFDA binding, HCT116; for IC50: read-out: Competitive Binding assay Endogenous GSTO1 IC50.
Source text: as §2

Assay [3] concerns HCT116 cells. Briefly: Bru-seq nascent RNA profiling. The conditions noted are these: C1-14 (10 μM) 4 h vs DMSO.
Procedure: The data set was analysed using the DAVID, ingenuity pathway analysis (IPA) and GSEA for pathway identification. […] Data sets with nearly 250 genes containing the gene identifiers and fold changes were uploaded to the IPA web-based application and each gene identifier was mapped to its corresponding gene object in the ingenuity pathways knowledge base. Finally, the biological function genes were ordered by P value of significance and maximum number of genes in the pathway. Bru-Seq data were further analysed using GSEA for exploring the mechanism of cellular action of GSTO1 and its inhibitor. A pre-ranked gene list of the Bru-Seq data set was submitted to GSEA, and enrichment analysis was done based on the Kolmogorov–Smirnov statistic[59][60]. […] For each gene set, the ES (enrichment score) was normalized to account for differences in gene set size and the false discovery rate relative to the normalized enrichment score values was calculated.
The target of assay [4] is T1, GSTO1. Briefly: GSTO1 substrate assay (reduction of 4-NPG). The conditions noted are these: for IC50: read-out: GSTO substrate assay IC50, cluster screening tables.
Procedure: For activity screening, we adapted a GSTO1 substrate assay that relies on the quantification of the reduction of S-(4-nitrophenacyl)glutathione (4-NPG), a GSTO1-specific substrate[17], using recombinant human GSTO1 in a high-throughput screening format.
Enzyme activity was measured by monitoring the reduction of 4-NPG to 4-nitroacetophenone by GSTO1.
Assay [5] has as its system HCT116p53+/+ cell. Briefly: MTT cell proliferation at single concentration. Format: cell-based, human. The gist of the method: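 MTT read-out (formazan in DMSO, 570 nm) after 3 h dye incubation at 37 °C, following 72 h inhibitor treatment of overnight-attached cells. Triplicate concentrations; ≥3 independent dose–response runs per line.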
In assay [6] the test system is HCT116. The assay can be described thus: MTT cytotoxicity GI50, HCT116. Format: cell-based, human. The method, then: (§1) Cell proliferation was assessed by a MTT assay. Cancer cells were seeded in 96-well microtitre plates and, after overnight attachment, treated with GSTO1 inhibitors. After 72 h, MTT solution (3 mg ml^−1; 20 μl) was added to each well and cells were incubated for 3 h at 37 °C. After incubation, media from each well was removed and the dark blue formazan crystals formed by live cells were dissolved in DMSO (150 μl per well). The absorbance intensity was measured at 570 nm on a microplate reader (Molecular Devices, Sunnyvale, CA, USA). Cell viability after 24 h treatment was assessed using ApoTox-Glo triplex assay (Promega) according to the manufacturer's protocol. At least three independent dose–response experiments with each concentration tested in triplicate were performed for each cell line.

For assay [7], the target named is PDI (Homo sapiens, UniProt P07237). The assay can be described thus: PDI activity assay (PDI-catalysed reduction of insulin). It counts as biochemical. Also noted: made in house. The conditions noted are these: for IC50: inhibition of PDI-catalyzed reduction of insulin.
Procedure: The reduction reaction was catalysed by PDI at room temperature, and the resulting aggregation of reduced insulin B chains was measured at 620 nm. % PDI activity was calculated from absorbance values at T=0 and 80 min.
Assay [8] concerns HT29. The assay can be described thus: MTT cytotoxicity GI50, HT29. It counts as cell-based. How it is done: as §1

Chain of PDI (P07237 18-508, species assumed): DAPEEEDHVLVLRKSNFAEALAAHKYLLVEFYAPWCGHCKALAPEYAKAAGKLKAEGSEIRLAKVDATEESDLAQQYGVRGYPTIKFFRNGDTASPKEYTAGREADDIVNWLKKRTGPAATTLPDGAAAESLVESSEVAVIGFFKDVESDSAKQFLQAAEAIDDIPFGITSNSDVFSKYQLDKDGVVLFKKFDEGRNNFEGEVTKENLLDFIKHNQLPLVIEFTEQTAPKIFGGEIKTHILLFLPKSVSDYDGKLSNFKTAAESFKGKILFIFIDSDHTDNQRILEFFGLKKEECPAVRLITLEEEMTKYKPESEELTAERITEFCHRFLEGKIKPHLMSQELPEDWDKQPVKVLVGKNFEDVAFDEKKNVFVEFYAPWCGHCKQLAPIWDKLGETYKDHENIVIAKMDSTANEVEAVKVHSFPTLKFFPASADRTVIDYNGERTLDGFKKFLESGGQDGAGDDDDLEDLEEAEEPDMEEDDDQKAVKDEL

On to `CN(C)c1ccc(Cl)cc1NC(=O)CCl` [C1-14], for which the “GSTO binding assay (% Inhibition at 10 µM) Recombinant” value in assay [1] is listed as -15.6%. Further, in assay [2], the “GSTO binding assay (% Inhibition at 10 µM) Endogenous” value is on record as 6.7%. Also, in assay [3], the ATP5L2 fold change is given as 0.70, the ATP6AP1L fold change stood at 0.71, the AURKAPS1 fold change was found to be 0.68 and the BACE1-AS fold change is on record as 0.60. In assay [3], this molecule displayed an HFM1 fold change of 8.78, an HIST1H1E fold change of 8.67, an HIST1H2AC fold change of 5.52 and an HIST1H2AG fold change of 10.36. In assay [3], this molecule came in with an HIST1H2AH fold change of 6.00, an HIST1H2AI fold change of 8.25, an HIST1H2AJ fold change of 11.27 and an HIST1H2BJ fold change of 5.45. In assay [3], this molecule had an HIST1H2BL fold change of 15.96, an HIST1H2BN fold change of 5.80, an HIST1H3H fold change of 6.41 and an HIST1H4C fold change of 5.72. In addition, in assay [3], the HIST1H4D fold change is recorded as 7.81, the HIST1H4K fold change was 18.57, the HIST2H2AB fold change came to 5.21 and the HIST2H3D fold change turned out to be 7.39. Also, in assay [3], the HIST3H2BB fold change was 6.97, the HIST4H4 fold change is given as 7.84, the HSP90AB4P fold change is given as 0.72 and the HUS1B fold change is 0.46. Moreover, in assay [3], the IER3 fold change worked out at 0.72, the LINC00115 fold change stood at 0.64, the LINC00311 fold change turned out to be 0.62 and the LINC00471 fold change was 0.67. Further, in assay [3], the P2RX5-TAX1BP3 fold change stood at 0.65, the REP15 fold change came to 0.70, the RIBC2 fold change is 0.70 and the RPA4 fold change stood at 0.69. In addition, in assay [3], the RPPH1 fold change came to 16.74, the SCARNA10 fold change stood at 5.37, the SLC7A5P1 fold change came out at 0.38 and the TIGD6 fold change was determined as 0.71. In addition, in assay [3], the TNFAIP3 fold change was 0.71, the TYRO3P fold change is 0.65, the ZNF572 fold change amounted to 0.70 and the ZNF670-ZNF695 fold change is 0.58. In addition, in assay [4], the “GSTO substrate assay % Inhibition at 10 µM” value is 16.5%.

As to `CC1CCc2c(sc(NC(=O)CCl)c2C(N)=O)C1` (stereo not shown) [C2-18], the “GSTO binding assay (% Inhibition at 10 µM) Recombinant” value in assay [1] is on record as 72.8%. For the same molecule, the “% Inhibition of HCT116p53+/+ cell proliferation at 10 µM” value in assay [5] is reported as 82.1%. Moreover, the GI50 in assay [6] stood at 6900 ± 1900 nM; in assay [8], 9500 ± 2800 nM. For the same molecule, the IC50 is 75 nM in assay [2], above 10000 nM in assay [7] and 119 nM in assay [4]. Also, the “GSTO substrate assay % Inhibition at 10 µM” value in assay [4] was 78.7%.

Consider `COC(=O)c1c(-c2ccccc2Cl)csc1NC(=O)CCl` [C2-10], for which the “GSTO binding assay (% Inhibition at 10 µM) Recombinant” value in assay [1] was determined as 48.4%. Further, the “% Inhibition of HCT116p53+/+ cell proliferation at 10 µM” value in assay [5] was 9.1%. Moreover, the GI50 in assay [6] came out at 18800 ± 1600 nM; in assay [8], 18100 ± 1600 nM. Also, in assay [2], the “GSTO binding assay (% Inhibition at 10 µM) Endogenous” value is recorded as 51.6%. For the same molecule, the IC50 was 190 nM in assay [2], above 10000 nM in assay [7] and 62 nM in assay [4]. The “GSTO substrate assay % Inhibition at 10 µM” value in assay [4] is reported as 88.4%.

As to `O=C(CCl)Nc1cc(S(=O)(=O)N(C(=O)CCl)c2cccc(Cl)c2)ccc1Cl` [C1-29], the “GSTO binding assay (% Inhibition at 10 µM) Recombinant” value in assay [1] is on record as 70.6%. The “% Inhibition of HCT116p53+/+ cell proliferation at 10 µM” value in assay [5] came out at 42.5%. Further, the GI50 in assay [6] worked out at 13700 ± 1300 nM; in assay [8], 15500 ± 200 nM. In assay [2], the “GSTO binding assay (% Inhibition at 10 µM) Endogenous” value is 61.0%. Also, the IC50 in assay [2] is 44 nM; in assay [7] it was 1460 ± 330 nM; in assay [4], 30 nM. The molecule also yielded a Fold selectivity in assay [7] (GSTO1 versus PDI enzyme inhibition) of 48.7. The “GSTO substrate assay % Inhibition at 10 µM” value in assay [4] was found to be 102.3%.

With `N#CCCN(C(=O)CCl)c1cccc(C(F)(F)F)c1` [C4-2], the “GSTO binding assay (% Inhibition at 10 µM) Recombinant” value in assay [1] worked out at 53.2%. Further, in assay [5], the “% Inhibition of HCT116p53+/+ cell proliferation at 10 µM” value was 84.1% and 93.6%. In addition, the “GSTO binding assay (% Inhibition at 10 µM) Endogenous” value in assay [2] was 52.8%. In addition, in assay [4], the “GSTO substrate assay % Inhibition at 10 µM” value is 78.6% and the IC50 was found to be 1070 nM.

For the molecule `CN(CC(=O)Nc1c(Cl)cccc1Cl)C(=O)CCl` [C4-7], the “GSTO binding assay (% Inhibition at 10 µM) Recombinant” value in assay [1] was -36.4%. Also, in assay [5], the “% Inhibition of HCT116p53+/+ cell proliferation at 10 µM” value stood at 81.8%. Moreover, the “GSTO binding assay (% Inhibition at 10 µM) Endogenous” value in assay [2] stood at 53.0%. For the same molecule, in assay [4], the “GSTO substrate assay % Inhibition at 10 µM” value is given as 1.8%.

Consider `Cn1ccnc1C(NC(=O)CCl)c1ccccc1` (stereo not shown) [C3-10], for which, in assay [1], the “GSTO binding assay (% Inhibition at 10 µM) Recombinant” value is recorded as 29.4%. Also, the “% Inhibition of HCT116p53+/+ cell proliferation at 10 µM” value in assay [5] was 96.5% and 87.4%. For the same molecule, in assay [2], the “GSTO binding assay (% Inhibition at 10 µM) Endogenous” value was 48.4%. The “GSTO substrate assay % Inhibition at 10 µM” value in assay [4] came to 78.4%.

Turning to `COc1ccc(N2CCN(C(=O)CCl)CC2)cc1` [C5-5], in assay [1], the “GSTO binding assay (% Inhibition at 10 µM) Recombinant” value was 44.2%. Further, in assay [5], the “% Inhibition of HCT116p53+/+ cell proliferation at 10 µM” value was -16.3%. Further, the “GSTO binding assay (% Inhibition at 10 µM) Endogenous” value in assay [2] was 51.5%. Further, the “GSTO substrate assay % Inhibition at 10 µM” value in assay [4] is reported as 78.6%.

`Cc1sc2ncn(NC(=O)CCl)c(=O)c2c1C` [C2-30]: in assay [1], the “GSTO binding assay (% Inhibition at 10 µM) Recombinant” value is 50.5%. The “% Inhibition of HCT116p53+/+ cell proliferation at 10 µM” value in assay [5] is reported as 12.0%. In assay [2], the “GSTO binding assay (% Inhibition at 10 µM) Endogenous” value turned out to be 41.1%. Besides, in assay [4], the “GSTO substrate assay % Inhibition at 10 µM” value is 47.4%.

The term GI50 denotes the concentration that inhibits growth by half. A word on the IC50: it is the point on the concentration scale where inhibition reaches its midpoint.
